Source: ChEMBL document CHEMBL4251572, “Novel aminopyrimidinyl benzimidazoles as potentially antimicrobial agents: Design, synthesis and biological evaluation” (Eur J Med Chem, 2018)
≈ marks a conversion by molar mass, not a printed value. Calls of active or inactive are those of the source. No cut-off for these calls is given here.

Key:
Pseudomonas aeruginosa [1] = experiment: Antibacterial activity against Pseudomonas aeruginosa after 24 hrs by micro broth dilution assay; assay type: functional
Staphylococcus aureus [2] = experiment: Antibacterial activity against methicillin-resistant Staphylococcus aureus N315 after 16 serial passages by two-fold serial dilution assay; assay type: functional, organism-based
Bacillus = experiment: Antibacterial activity against Bacillus proteus ATCC 13315 after 24 hrs by micro broth dilution assay; assay type: functional; details: ATCC 13315, 24 h
Shigella dysenteriae = experiment: Antibacterial activity against Shigella dysenteriae after 24 hrs by micro broth dilution assay; assay type: functional
Escherichia coli [3] = experiment: Antibacterial activity against Escherichia coli DH52 after 24 hrs by micro broth dilution assay; assay type: functional; details: DH52, 24 h
Staphylococcus aureus [4] = experiment: Antibacterial activity against methicillin-resistant Staphylococcus aureus N315 after 24 hrs by micro broth dilution assay; assay type: functional; details: N315, 24 h
Escherichia coli [5] = experiment: Antibacterial activity against Escherichia coli JM109 after 24 hrs by micro broth dilution assay; assay type: functional; details: JM109, 24 h
Salmonella typhi = experiment: Antibacterial activity against Bacillus typhi after 24 hrs by micro broth dilution assay; assay type: functional, Salmonella enterica subsp. enterica serovar Typhi; details: Salmonella enterica
Bacillus subtilis = experiment: Antibacterial activity against Bacillus subtilis after 24 hrs by micro broth dilution assay; assay type: functional
Staphylococcus aureus [6] = experiment: Antibacterial activity against Staphylococcus aureus ATCC 25923 after 24 hrs by micro broth dilution assay; assay type: functional; details: ATCC 25923, 24 h
Micrococcus luteus = experiment: Antibacterial activity against Micrococcus luteus ATCC4698 after 24 hrs by micro broth dilution assay; assay type: functional; details: ATCC4698, 24 h
Aspergillus flavus = experiment: Antifungal against Aspergillus flavus after 24 hrs by two fold serial dilution method; assay type: functional
Pseudomonas aeruginosa [7] = experiment: Ratio of MBC for Pseudomonas aeruginosa to MIC for Pseudomonas aeruginosa; assay type: functional
Staphylococcus aureus [8] = experiment: Ratio of MBC for methicillin-resistant Staphylococcus aureus N315 to MIC for methicillin-resistant Staphylococcus aureus N315; assay type: functional
Pichia norvegensis = experiment: Antifungal against Candida mycoderma after 24 hrs by two fold serial dilution method; assay type: functional
Staphylococcus aureus [9] = experiment: Ratio of MBC for Staphylococcus aureus ATCC 25923 to MIC for Staphylococcus aureus ATCC 25923; assay type: functional
Saccharomyces cerevisiae = experiment: Antifungal against Saccharomyces cerevisiae after 24 hrs by two fold serial dilution method; assay type: functional
Candida albicans = experiment: Antifungal against Candida albicans ATCC 76615 after 24 hrs by two fold serial dilution method; assay type: functional; details: ATCC 76615, 24 h
Staphylococcus aureus [10] = experiment: Antibacterial activity against Staphylococcus aureus ATCC 25923 incubated for 24 hrs followed by plating onto tryptic soy agar medium and measured after 24 hrs; assay type: functional; details: ATCC 25923, 24 h
Staphylococcus aureus [11] = experiment: Antibacterial activity against methicillin-resistant Staphylococcus aureus N315 incubated for 24 hrs followed by plating onto tryptic soy agar medium and measured after 24 hrs; assay type: functional; details: N315, 24 h
Pseudomonas aeruginosa [12] = experiment: Antibacterial activity against Pseudomonas aeruginosa incubated for 24 hrs followed by plating onto tryptic soy agar medium and measured after 24 hrs; assay type: functional
Cyberlindnera jadinii = experiment: Antifungal against Candida utilis after 24 hrs by two fold serial dilution method; assay type: functional; details: Williopsis jadinii
HepG2 = experiment: Induction of ROS generation in human HepG2 cells at 6.25 to 50 uM by DCFH-DA staining based fluorescence microscopic analysis; assay type: cell-based; details: hepg2, 50 µM
Calf thymus DNA [13] = experiment: Binding affinity to calf thymus DNA assessed as Stern-Volmer quenching constant at 2 x 10^-5 mol/L at pH 7.4 at 298 K in presence of potassium iodide by fluorescence assay (reference value: 46.23 L/mol); assay type: nucleic-acid assay; details: Bos taurus
Albumin [14] = target: T1, Albumin (Homo sapiens, UniProt P02768); experiment: Binding affinity to HSA assessed as increase in absorption intensity by UV-vis absorption spectra analysis; assay type: ADME; details: isolated protein
Calf thymus DNA [15] = experiment: Competitive binding affinity to calf thymus DNA assessed as reduction in DNA_AO complex fluorescence intensity by acridine orange staining-based assay; assay type: nucleic-acid assay; details: Bos taurus
Albumin [16] = target: T1, Albumin; experiment: Binding affinity to HSA at 0.2 to 1 10'5 mol/L by synchronous fluorescence […]; assay type: ADME; details: isolated protein
Calf thymus DNA [17] = experiment: Binding affinity to calf thymus DNA by UV-vis absorption spectra analysis; assay type: nucleic-acid assay; details: Bos taurus
Albumin [18] = target: T1, Albumin; experiment: Binding affinity to HSA assessed as Stern-Volmer quenching constant at pH 7.4 at 284 K by fluorescence spectroscopic analysis; assay type: ADME; details: isolated protein
L02 = experiment: Cytotoxicity against human LO2 cells at 100 to 500 ug/ml after 48 hrs by MTT assay; assay type: cell-based; details: l02, 48 h
Albumin [19] = target: T1, Albumin; experiment: Binding affinity to HSA assessed as Stern-Volmer quenching constant at pH 7.4 at 303 K by fluorescence spectroscopic analysis; assay type: ADME; details: isolated protein
Calf thymus DNA [20] = experiment: Binding affinity to calf thymus DNA assessed as hypochromic effect by UV-vis absorption spectra analysis; assay type: nucleic-acid assay; details: Bos taurus
Albumin [21] = target: T1, Albumin; experiment: Binding affinity to HSA assessed as Stern-Volmer quenching constant at pH 7.4 at 298 K by fluorescence spectroscopic analysis; assay type: ADME; details: isolated protein

T1 sequence (P02768 whole entry): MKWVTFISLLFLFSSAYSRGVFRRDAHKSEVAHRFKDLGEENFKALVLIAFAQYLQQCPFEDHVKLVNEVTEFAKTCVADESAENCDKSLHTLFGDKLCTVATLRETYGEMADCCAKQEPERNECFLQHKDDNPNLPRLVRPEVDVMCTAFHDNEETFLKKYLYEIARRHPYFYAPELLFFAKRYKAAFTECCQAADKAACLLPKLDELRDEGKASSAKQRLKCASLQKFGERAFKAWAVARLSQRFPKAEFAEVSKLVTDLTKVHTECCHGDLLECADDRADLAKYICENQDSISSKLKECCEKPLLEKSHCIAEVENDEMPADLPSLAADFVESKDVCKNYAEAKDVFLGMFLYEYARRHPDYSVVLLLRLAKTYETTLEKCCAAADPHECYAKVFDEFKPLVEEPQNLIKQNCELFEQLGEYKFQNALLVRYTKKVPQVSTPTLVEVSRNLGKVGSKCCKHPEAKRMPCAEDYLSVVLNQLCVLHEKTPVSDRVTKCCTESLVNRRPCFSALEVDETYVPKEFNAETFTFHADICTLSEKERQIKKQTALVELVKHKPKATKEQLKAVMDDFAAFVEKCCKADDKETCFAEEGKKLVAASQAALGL

Structure (SMILES) | MIC (Pseudomonas aeruginosa [1]) [µg/mL] | Activity (Staphylococcus aureus [2]) | MIC (Bacillus) [µg/mL] | MIC (Shigella dysenteriae) [µg/mL] | MIC (Escherichia coli [3]) [µg/mL] | MIC (Staphylococcus aureus [4]) [µg/mL] | MIC (Escherichia coli [5]) [µg/mL] | MIC (Salmonella typhi) [µg/mL] | MIC (Bacillus subtilis) [µg/mL] | MIC (Staphylococcus aureus [6]) [µg/mL] | MIC (Micrococcus luteus) [µg/mL] | MIC (Aspergillus flavus) [µg/mL] | Ratio (Pseudomonas aeruginosa [7]) | MIC (Pichia norvegensis) [µg/mL] | Ratio (Staphylococcus aureus [9]) | MIC (Saccharomyces cerevisiae) [µg/mL] | MIC (Candida albicans) [µg/mL] | MBC (Staphylococcus aureus [10]) [µg/mL] | MBC (Staphylococcus aureus [11]) [µg/mL] | MBC (Pseudomonas aeruginosa [12]) [µg/mL] | further results
CCn1cc(C(=O)O)c(=O)c2cc(F)c(N3CCNCC3)cc21 [NORFLOXACIN] | 1 (≈ 3.13 µM) | inactive | 4 (≈ 12.5 µM) | 16 (≈ 50.1 µM) | 1 (≈ 3.13 µM) | 1 (≈ 3.13 µM) | 1 (≈ 3.13 µM) | 1 (≈ 3.13 µM) | 2 (≈ 6.26 µM) | 8 (≈ 25.1 µM) | 1 (≈ 3.13 µM) |  |  |  |  |  |  |  |  |  | 
Nc1nc(-c2ccc(F)cc2)cc(-c2nc3ccccc3[nH]2)n1 | 16 (≈ 52.4 µM) |  | 128 (≈ 419 µM) | 16 (≈ 52.4 µM) | 128 (≈ 419 µM) | 128 (≈ 419 µM) | 128 (≈ 419 µM) | 8 (≈ 26.2 µM) | 2 (≈ 6.55 µM) | 2 (≈ 6.55 µM) | 32 (≈ 105 µM) | 256 (≈ 838 µM) | 1 | 256 (≈ 838 µM) | 1 | 64 (≈ 210 µM) | 8 (≈ 26.2 µM) | 2 (≈ 6.55 µM) | 512 (≈ 1680 µM) | 16 (≈ 52.4 µM) | Ratio (Staphylococcus aureus [8]): 4; MIC (Cyberlindnera jadinii): 128 µg/mL (≈ 419 µM)
Cc1ccc(-c2cc(-c3nc4ccccc4[nH]3)nc(N)n2)cc1 | 4 (≈ 13.3 µM) | Active | 4 (≈ 13.3 µM) | 16 (≈ 53.1 µM) | 1 (≈ 3.32 µM) | 8 (≈ 26.5 µM) | 2 (≈ 6.64 µM) | 2 (≈ 6.64 µM) | 8 (≈ 26.5 µM) | 8 (≈ 26.5 µM) | 8 (≈ 26.5 µM) | 1 (≈ 3.32 µM) | 2 | 4 (≈ 13.3 µM) | 1 | 4 (≈ 13.3 µM) | 8 (≈ 26.5 µM) | 8 (≈ 26.5 µM) | 8 (≈ 26.5 µM) | 8 (≈ 26.5 µM) | Activity (HepG2): Non-Toxic; KSV (Calf thymus DNA [13]): 39.9 L/mol; Activity (Albumin [14]): Active; Activity (Calf thymus DNA [15]): Dose-dependent effect; Activity (Albumin [16]): Active; K (Calf thymus DNA [17]): 1.54 ×10⁴ L/mol; KSV (Albumin [18]): 1.96 ×10⁵ L/mol; Activity (L02): Non-Toxic; KSV (Albumin [19]): 1.73 ×10⁵ L/mol; Activity (Calf thymus DNA [20]): Active; KSV (Albumin [21]): 1.9 ×10⁵ L/mol; MIC (Cyberlindnera jadinii): 4 µg/mL (≈ 13.3 µM)
